Reference: patent US20250084056A1, “SUBSTITUTED OXOISOINDOLINYL PIPERIDINE-2,6-DIONE COMPOUNDS” (BRISTOL-MYERS SQUIBB COMPANY, priority 2023, published 2025)

Legend:
Assay type in all cases: cell-based
GSPT1 = GSPT1 (Homo sapiens, UniProt P15170+Q96SW2); assay: GSPT1 Cellular Degradation Assay (DF15-GSPT1-ePL); set-up: expressed in transfected cells; conditions: DF15-GSPT1-ePL cells, 20 hours
Procedure, shortened: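 Human DF15 cells co-expressing a GSPT1–ePL fusion were treated with compound in RPMI 1640/10% FBS for 20 h at 37 °C. GSPT1 level was read by enzyme-fragment-complementation luminescence after 60 min with detection reagent. The reference degrader at […] defined 75% response; DC50 and Dmax were reported.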

Cyclin E1 = Cyclin E1 (Homo sapiens, UniProt P24864+Q96SW2); assay: Cyclin E1 Cellular Degradation Assay (MSD); set-up: endogenous in cells; host or cells: OVCAR3; conditions: for DC50 / Dmax: Cyclin E1 cellular degradation; for Dmax: maximum degradation; for Ratio of GSPT1 DC50/Cyclin E1 DC50: selectivity for degradation of Cyclin E1 over GSPT1
Cyclin E1, sequence (P24864 whole entry): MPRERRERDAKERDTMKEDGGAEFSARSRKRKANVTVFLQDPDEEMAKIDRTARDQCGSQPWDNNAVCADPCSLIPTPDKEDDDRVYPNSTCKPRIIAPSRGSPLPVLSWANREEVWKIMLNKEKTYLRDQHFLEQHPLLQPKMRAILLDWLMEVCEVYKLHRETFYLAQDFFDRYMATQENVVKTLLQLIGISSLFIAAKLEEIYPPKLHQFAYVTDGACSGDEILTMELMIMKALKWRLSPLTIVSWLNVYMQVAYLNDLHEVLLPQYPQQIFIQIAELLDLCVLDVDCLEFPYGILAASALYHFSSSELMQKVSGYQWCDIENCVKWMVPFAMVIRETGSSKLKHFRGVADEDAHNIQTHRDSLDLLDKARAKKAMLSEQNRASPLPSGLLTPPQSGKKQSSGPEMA
Cyclin E1, sequence (Q96SW2 whole entry): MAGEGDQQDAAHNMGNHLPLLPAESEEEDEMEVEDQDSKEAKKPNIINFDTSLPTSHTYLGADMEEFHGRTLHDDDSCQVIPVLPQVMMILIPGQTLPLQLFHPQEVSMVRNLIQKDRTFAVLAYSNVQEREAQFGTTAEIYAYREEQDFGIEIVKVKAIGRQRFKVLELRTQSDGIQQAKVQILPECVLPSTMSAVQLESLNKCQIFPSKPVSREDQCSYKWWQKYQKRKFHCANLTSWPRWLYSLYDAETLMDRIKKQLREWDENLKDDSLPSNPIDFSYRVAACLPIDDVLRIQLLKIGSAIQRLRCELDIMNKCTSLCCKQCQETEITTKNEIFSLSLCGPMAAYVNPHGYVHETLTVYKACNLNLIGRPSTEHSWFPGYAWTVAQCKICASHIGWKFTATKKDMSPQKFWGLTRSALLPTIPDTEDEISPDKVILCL
Cyclin E1, sequence (Q16531 whole entry partner): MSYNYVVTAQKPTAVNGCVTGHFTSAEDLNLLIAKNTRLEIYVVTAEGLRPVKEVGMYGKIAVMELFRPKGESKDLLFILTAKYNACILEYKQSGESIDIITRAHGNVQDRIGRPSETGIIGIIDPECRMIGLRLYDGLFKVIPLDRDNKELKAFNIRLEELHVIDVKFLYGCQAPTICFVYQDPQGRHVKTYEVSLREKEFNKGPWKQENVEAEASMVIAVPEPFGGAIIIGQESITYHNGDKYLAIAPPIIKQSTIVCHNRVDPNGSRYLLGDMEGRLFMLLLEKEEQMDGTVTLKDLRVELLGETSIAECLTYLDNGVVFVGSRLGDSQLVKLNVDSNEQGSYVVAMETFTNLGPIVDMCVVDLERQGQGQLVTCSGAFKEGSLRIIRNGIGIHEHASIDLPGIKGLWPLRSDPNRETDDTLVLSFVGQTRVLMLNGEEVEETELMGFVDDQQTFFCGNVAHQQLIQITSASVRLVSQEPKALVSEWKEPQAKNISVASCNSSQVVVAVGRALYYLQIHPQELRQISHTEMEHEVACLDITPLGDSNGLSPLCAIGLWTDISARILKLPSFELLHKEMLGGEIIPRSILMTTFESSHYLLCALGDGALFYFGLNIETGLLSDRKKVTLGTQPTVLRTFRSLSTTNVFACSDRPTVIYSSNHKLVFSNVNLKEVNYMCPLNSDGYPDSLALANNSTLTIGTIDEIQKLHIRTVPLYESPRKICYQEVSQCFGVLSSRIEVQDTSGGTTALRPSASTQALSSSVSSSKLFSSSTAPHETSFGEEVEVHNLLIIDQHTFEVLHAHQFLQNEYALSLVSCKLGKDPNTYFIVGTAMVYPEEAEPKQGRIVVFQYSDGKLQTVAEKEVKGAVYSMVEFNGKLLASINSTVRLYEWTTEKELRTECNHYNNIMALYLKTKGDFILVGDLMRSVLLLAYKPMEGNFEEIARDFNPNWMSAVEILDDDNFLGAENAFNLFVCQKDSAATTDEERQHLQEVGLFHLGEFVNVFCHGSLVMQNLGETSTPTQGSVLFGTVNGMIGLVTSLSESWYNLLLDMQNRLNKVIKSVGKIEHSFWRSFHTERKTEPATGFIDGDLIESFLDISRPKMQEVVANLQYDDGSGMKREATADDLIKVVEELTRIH
Procedure, shortened: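 OVCAR3 cells treated with compound for 24 h at 37 °C, lysed, and cyclin E1 measured by MSD sandwich immunoassay (rabbit capture, mouse detection anti-CCNE1). Reference degrader at […] defined 110% response; DC50 and Dmax derived from response.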

Phospho-Rb (Ser807/811) = assay: Phospho-Retinoblastoma (pRB) Cellular Assay; conditions: Homo sapiens, OVCAR-3, NIH OVCAR3 cells, 24 hours; for IC50: concentration giving 50% response; for Emax: maximum response, reference compound at 10 μM = 100%, read-out: pRB Ymax
Procedure, shortened: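 OVCAR3 cells seeded overnight, then dosed with serial dilutions for 24 h at 37° C. Lysed with kit mix plus phosphatase inhibitor, ≥4 h at room temperature, read on EnVision; 100% response set by reference compound at 10 μM, giving IC50 and Ymax.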

GSPT1, sequence (P15170 whole entry, the tested form may be a part): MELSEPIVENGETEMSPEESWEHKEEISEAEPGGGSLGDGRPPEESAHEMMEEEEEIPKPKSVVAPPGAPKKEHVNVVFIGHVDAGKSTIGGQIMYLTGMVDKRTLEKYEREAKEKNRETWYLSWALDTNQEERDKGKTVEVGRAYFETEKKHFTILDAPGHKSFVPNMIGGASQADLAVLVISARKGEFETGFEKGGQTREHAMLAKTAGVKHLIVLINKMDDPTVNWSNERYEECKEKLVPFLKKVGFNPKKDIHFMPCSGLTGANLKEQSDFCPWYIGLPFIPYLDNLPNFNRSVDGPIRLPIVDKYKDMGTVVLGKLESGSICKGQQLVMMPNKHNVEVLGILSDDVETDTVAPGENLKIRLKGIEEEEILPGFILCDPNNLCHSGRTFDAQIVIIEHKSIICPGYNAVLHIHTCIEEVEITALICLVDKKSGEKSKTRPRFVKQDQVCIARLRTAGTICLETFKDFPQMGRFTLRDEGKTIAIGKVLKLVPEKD
GSPT1, sequence (Q96SW2 whole entry, the tested form may be a part): as the sequence (Q96SW2 whole entry) above
GSPT1, sequence (Q16531 whole entry partner, the tested form may be a part): as the sequence (Q16531 whole entry partner) above

| SMILES | DC50 (GSPT1) [nM] | Dmax (GSPT1) [%] | DC50 (Cyclin E1) [nM] | Dmax (Cyclin E1) [%] | Ratio of GSPT1 DC50/Cyclin E1 DC50 (Cyclin E1) | IC50 (Phospho-Rb (Ser807/811)) [nM] | Emax (Phospho-Rb (Ser807/811)) [%] |
| --- | --- | --- | --- | --- | --- | --- | --- |
| COc1c(COC(=O)Nc2ccc(Oc3cccc(Cl)c3)cc2F)ccc2c1C(=O)N(C1CCC(=O)NC1=O)C2 (centres unmarked) [Example 26, [2-(2,6-dioxopiperidin-3-yl)-4-methoxy-3-oxo-2,3-dihydro-1H-isoindol-5-yl]methyl N-[4-(3-chlorophenoxy)-2-fluorophenyl]carbamate] | > 14000 | 32 | 97 | 106 | >145 | 428 | 96 |
| COc1c(COC(=O)Nc2ccc(Oc3cccc(F)c3)cc2Cl)ccc2c1C(=O)N(C1CCC(=O)NC1=O)C2 (centres unmarked) [Example 27, [2-(2,6-dioxopiperidin-3-yl)-4-methoxy-3-oxo-2,3-dihydro-1H-isoindol-5-yl]methyl N-[2-chloro-4-(3-fluorophenoxy)phenyl]carbamate] | > 14000 | 30 | 93 | 104 | >151 | 1180 | 86 |
| COc1c(COC(=O)Nc2ccc(Oc3ccc(F)cc3)cc2F)ccc2c1C(=O)N(C1CCC(=O)NC1=O)C2 (centres unmarked) [Example 28, [2-(2,6-dioxopiperidin-3-yl)-4-methoxy-3-oxo-2,3-dihydro-1H-isoindol-5-yl]methyl N-[2-fluoro-4-(4-fluorophenoxy)phenyl]carbamate] | > 14000 | 45 | 110 | 103 | >127 | 100 | 106 |
| COc1c(COC(=O)Nc2ccc(C(F)(F)c3ccccc3)cc2)ccc2c1C(=O)N(C1CCC(=O)NC1=O)C2 (centres unmarked) [Example 29, [2-(2,6-dioxopiperidin-3-yl)-4-methoxy-3-oxo-2,3-dihydro-1H-isoindol-5-yl]methyl N-{4-[difluoro(phenyl)methyl]phenyl}carbamate] | > 14000 | 45 | 1430 | 92 | >10 | 865 | 99 |
| COc1c(COC(=O)Nc2ccc(Oc3ccc(F)cc3F)cc2F)ccc2c1C(=O)N(C1CCC(=O)NC1=O)C2 (centres unmarked) [Example 30, [2-(2,6-dioxopiperidin-3-yl)-4-methoxy-3-oxo-2,3-dihydro-1H-isoindol-5-yl]methyl N-[4-(2,4-difluorophenoxy)-2-fluorophenyl]carbamate] | > 14000 | 31 | 672 | 103 | >21 | 442 | 107 |
| COc1ccccc1Oc1ccc(NC(=O)OCc2ccc3c(c2OC)C(=O)N(C2CCC(=O)NC2=O)C3)cc1 (centres unmarked) [Example 31, [2-(2,6-dioxopiperidin-3-yl)-4-methoxy-3-oxo-2,3-dihydro-1H-isoindol-5-yl]methyl N-[4-(2-methoxyphenoxy)phenyl]carbamate] | 6600 | 64 | 735 | 83 | 9 | 2310 | 81 |
| COc1cccc(Oc2ccc(NC(=O)OCc3ccc4c(c3OC)C(=O)N(C3CCC(=O)NC3=O)C4)cc2)c1 (centres unmarked) [Example 32, [2-(2,6-dioxopiperidin-3-yl)-4-methoxy-3-oxo-2,3-dihydro-1H-isoindol-5-yl]methyl N-[4-(3-methoxyphenoxy)phenyl]carbamate] | > 14000 | 24 | 67 | 96 | >208 | 498 | 83 |
| COc1cc(F)c(F)cc1Oc1ccc(NC(=O)OCc2ccc3c(c2OC)C(=O)N(C2CCC(=O)NC2=O)C3)c(C)c1 (centres unmarked) [Example 33, [2-(2,6-dioxopiperidin-3-yl)-4-methoxy-3-oxo-2,3-dihydro-1H-isoindol-5-yl]methyl N-[4-(4,5-difluoro-2-methoxyphenoxy)-2-methylphenyl]carbamate] | > 14000 | 8 | 1630 | 85 | >9 | 809 | 87 |
| COc1cc(Oc2cc(F)c(F)cc2F)ccc1NC(=O)OCc1ccc2c(c1OC)C(=O)N(C1CCC(=O)NC1=O)C2 (centres unmarked) [Example 34, [2-(2,6-dioxopiperidin-3-yl)-4-methoxy-3-oxo-2,3-dihydro-1H-isoindol-5-yl]methyl N-[2-methoxy-4-(2,4,5-trifluorophenoxy)phenyl]carbamate] | > 14000 | 19 | 194 | 107 | >72 | 77 | 122 |
| COc1cc(Oc2ccc(F)cc2)ccc1NC(=O)OCc1ccc2c(c1OC)C(=O)N(C1CCC(=O)NC1=O)C2 (centres unmarked) [Example 37, [2-(2,6-dioxopiperidin-3-yl)-4-methoxy-3-oxo-2,3-dihydro-1H-isoindol-5-yl]methyl N-[4-(4-fluorophenoxy)-2-methoxyphenyl]carbamate] | > 14000 | 28 | 107 | 102 | >131 | 289 | 111 |
| COc1c(COC(=O)Nc2ccc(Oc3ccc(F)c(F)c3)cc2C)ccc2c1C(=O)N(C1CCC(=O)NC1=O)C2 (centres unmarked) [Example 38, [2-(2,6-dioxopiperidin-3-yl)-4-methoxy-3-oxo-2,3-dihydro-1H-isoindol-5-yl]methyl N-[4-(3,4-difluorophenoxy)-2-methylphenyl]carbamate] | 4000 | 46 | 91 | 107 | 44 | 128 | 111 |
| COc1c(COC(=O)Nc2ccc(Oc3cccc(F)c3)cc2C)ccc2c1C(=O)N(C1CCC(=O)NC1=O)C2 (centres unmarked) [Example 39, [2-(2,6-dioxopiperidin-3-yl)-4-methoxy-3-oxo-2,3-dihydro-1H-isoindol-5-yl]methyl N-[4-(3-fluorophenoxy)-2-methylphenyl]carbamate] | > 14000 | 20 | 103 | 108 | >136 | 127 | 111 |
| COc1c(COC(=O)Nc2ccc(Oc3cc(F)c(F)c(F)c3)cc2C)ccc2c1C(=O)N(C1CCC(=O)NC1=O)C2 (centres unmarked) [Example 40, [2-(2,6-dioxopiperidin-3-yl)-4-methoxy-3-oxo-2,3-dihydro-1H-isoindol-5-yl]methyl N-[2-methyl-4-(3,4,5-trifluorophenoxy)phenyl]carbamate] | > 14000 | 9 | 41 | 108 | >339 | 128 | 110 |
| COc1c(COC(=O)Nc2ccc(C(C)(C)c3ccccc3)cc2)ccc2c1C(=O)N(C1CCC(=O)NC1=O)C2 (centres unmarked) [Example 41, [2-(2,6-dioxopiperidin-3-yl)-4-methoxy-3-oxo-2,3-dihydro-1H-isoindol-5-yl]methyl N-[4-(2-phenylpropan-2-yl)phenyl]carbamate] | > 14000 | 13 | 336 | 92 | >42 | 248 | 100 |
